# Data taken from patent US12338205B2, “Crystalline form of 3-((L-valyl) amino)-1-propanesulfonic acid” (RISEN (SUZHOU) PHARMA TECH CO., LTD., priority 2018, dated 2025).
# Key:
# [1] = Pharmacokinetics comparative experiment, plasma concentration by LC/MS2 after capsule intragastric administration; format: in vivo; settings: SD rats, 133 mg/kg, solid capsule intragastric administration
# Description: By means of a pharmacokinetics comparative experiment, the […] feature of the crystalline form I provided herein after administration is compared with that of the amorphous solid of Example 1 as a reference sample.
# SD rats (all male, weight of 260-280 g) were randomizely grouped, each group of 3 animals. The medication group received the crystalline form compound (No. S08S02S15a) of the Example 2, the crystalline form compound (No. S08S04S22a) of the Example 7, and the crystalline form compound (No. S08S19S24a) of the Example 8, respectively, and the control group received the reference sample (the amorphous solid of Example 1). The animals were fasted for 12 hours before administration, and the dosage of administration was 133 mg/kg. The corresponding medications were administered by intragastric administration using a solid capsule administration system (Size 9el Rat Box+Foam+Funnel+Syringe). Rat plasma samples were collected before administration, and 0.08, 0.16, 0.33, 0.5, 1, 1.5, 2, 3, 4, 6, and 8 h after administration, respectively. After heparin tube anticoagulation, centrifugation was performed at 5000 rpm for 10 min at a temperature of 4° C. A plasma supernatant sample was taken and subjected to protein precipitation using methanol, and then, the medication concentration in the plasma was monitored by LC/MS2.
# [2] = Thermogravimetric analysis (TGA); format: physicochemical; settings: for slow weight loss (TGA): before about 120° C., showing that it is an anhydrate; for decomposition temperature (TGA): nitrogen, ramp 10° C./min
# Experimental: The thermogravimetric analyzer (TGA) involved herein is Q500TGA from TA Instruments; detection conditions: a platinum crucible, a protective atmosphere of nitrogen, a gas flow rate of 40 mL/min; and the following detection method: a Hi-Res sensitivity of 3.0, ramp 10.00° C./min, res 5.0 to 120.00° C., and ramp 10.00° C./min to 350° C.
# [3] = compared with amorphous solid of Example 1
smiles,measurement,setting,value
"CC(C)[C@H](N)C(=O)NCCCS(=O)(=O)O [Crystalline Form I, 3-((L-valyl)amino)-1-propanesulfonic acid]",exposure AUC,[1]; [3],effectively improve
same,half-life period T1/2,[1]; [3],effectively improve
same,maximum blood concentration Cmax,[1]; [3],effectively improve
same,medication dissolution,"[1]; compared with reference sample (amorphous solid of Example 1), FIGS. 21-24",improving
same,slow weight loss (TGA),[2]; listed as Example 2,about 0.5 wt %
same,slow weight loss (TGA),[2]; listed as Example 6,about 0.5 wt %
same,slow weight loss (TGA),[2]; listed as Example 7,about 1.4 wt %
same,slow weight loss (TGA),[2]; listed as Example 8,about 0.2 wt %
same,slow weight loss (TGA),[2]; listed as Example 9,about 1.2 wt %
same,slow weight loss (TGA),[2]; listed as Example 14,about 0.5 wt %
same,slow weight loss (TGA),[2]; listed as Example 24,about 0.6 wt %
same,decomposition temperature (TGA),[2]; listed as Example 2,about 307 °C
same,decomposition temperature (TGA),[2]; listed as Example 6,about 300 °C
same,decomposition temperature (TGA),[2]; listed as Example 7,about 302 °C
same,decomposition temperature (TGA),[2]; listed as Example 8,about 314 °C
same,decomposition temperature (TGA),[2]; listed as Example 9,about 303 °C
same,decomposition temperature (TGA),[2]; listed as Example 14,about 310 °C
same,decomposition temperature (TGA),[2]; listed as Example 24,about 317 °C
